In patent US20100093817A1, “Compounds” (BIAL - PORTELA & CA S.A., priority 2007, published 2010):
Where a name gives a salt, the structure may show the parent alone.

Experiments:
[1] = molecular target: T1, human dopamine-β-hydroxylase (Homo sapiens, UniProt P09172); experiment: Human DβH in vitro assay: β-hydroxylation of dopamine to noradrenaline, SK-N-SH cells as enzyme source; format: biochemical; parameters: key to In vitro DβH inhibition: + = inhibitory activity; details: for In vitro DβH inhibition / IC50: SK-N-SH cells as source of human DβH, 50 mM dopamine, test compounds 0.3 to 10,000 nM; for IC50: read-out: In vitro DβH inhibition (IC50 μM); for % control Mean ± SEM: human DβH in vitro assay
T1 construct: SK-N-SH cells (ATCC HTB-11), a human neuroblastoma derived cell line, were used as a source of human dopamine-β-hydroxylase; host or cells: SK-N-SH human neuroblastoma cells
T1 sequence (P09172 1-617): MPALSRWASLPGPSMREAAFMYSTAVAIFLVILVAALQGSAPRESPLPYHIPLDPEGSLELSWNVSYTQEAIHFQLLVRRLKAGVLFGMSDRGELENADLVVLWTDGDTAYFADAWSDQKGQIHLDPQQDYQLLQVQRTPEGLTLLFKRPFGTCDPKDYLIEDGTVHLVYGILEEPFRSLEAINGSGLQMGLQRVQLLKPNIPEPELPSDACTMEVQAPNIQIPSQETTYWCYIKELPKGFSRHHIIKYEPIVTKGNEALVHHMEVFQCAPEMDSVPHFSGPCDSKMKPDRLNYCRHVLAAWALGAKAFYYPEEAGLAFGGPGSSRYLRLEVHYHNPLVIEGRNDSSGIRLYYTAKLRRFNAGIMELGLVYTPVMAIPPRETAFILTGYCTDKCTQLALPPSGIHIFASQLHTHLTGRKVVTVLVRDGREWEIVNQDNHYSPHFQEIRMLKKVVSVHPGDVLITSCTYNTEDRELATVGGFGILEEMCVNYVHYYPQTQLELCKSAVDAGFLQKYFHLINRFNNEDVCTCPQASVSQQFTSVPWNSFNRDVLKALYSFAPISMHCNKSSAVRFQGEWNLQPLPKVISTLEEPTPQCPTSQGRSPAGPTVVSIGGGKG
Protocol: Dopamine-β-hydroxylase activity was evaluated by the ability to β-hydroxylate dopamine to noradrenaline as previously described (Kojima, K., Parvez, S. and Nagatsu T. 1993. Analysis of enzymes in catecholamine biosynthesis. In Methods in Neurotransmitter and Neuropeptide Research, pp. 349-380: Elsevier Science Publishers). SK-N-SH cells (ATCC HTB-11), a human neuroblastoma derived cell line, were used as a source of human dopamine-β-hydroxylase. SK-N-SH cells cultured in 24 well plates were preincubated for 20 min in a reaction medium containing 200 mM sodium acetate, 30 mM N-ethylmaleimide, 5 μM copper sulphate, 0.5 mg/ml catalase aqueous solution, 1 mM pargyline, 10 mM sodium fumarate and 20 mM ascorbic acid. Thereafter, cells were incubated for further 45 min in the reaction medium with added increasing concentrations of dopamine (0.5 to 100 mM). During preincubation and incubation, the cells were continuously shaken and maintained at 37° C. The reaction was terminated by the addition of 0.2 M perchloric acid. The acidified samples were stored at 4° C. before injection into the high pressure liquid chromatograph for the assay of noradrenaline. In experiments conducted with the aim of studying the effects of new dopamine-β-hydroxylase inhibitors on enzyme activity, test compounds (0.3 to 10,000 nM) of interest were added to the preincubation and incubation solutions; the incubation was performed in the presence of a concentration (50 mM) of dopamine 2.5 times the corresponding Km value as determined in saturation experiments.

[2] = literature finding; central as well as peripheral effects; cited from earlier work

SMILES | In vitro DβH inhibition [1] | IC50 [1] [µM] | % control Mean ± SEM ([1]; compound at 5 μM) [% control] | crossing of the blood brain barrier (BBB) [2] | % control Mean ± SEM ([1]; compound at 0.5 μM) [% control] | % control Mean ± SEM ([1]; compound at 1 μM) [% control]
NCCc1c[nH]c(=S)n1[C@H]1COc2c(F)cc(F)cc2C1 [Compound I, (R)-5-(2-aminoethyl)-1-(6,8-difluorochroman-3-yl)-1,3-dihydroimidazole-2-thione, reference compound] | + | 0.2 | – | – | – | –
NCc1c[nH]c(=S)n1[C@H]1CCc2c(F)cc(F)cc2C1 [Nepicastat, reference compound] | – | – | 0.4 ± 0.2 | cross the blood brain barrier | – | –
O=S(=O)([O-])NCCc1c[nH]c(=S)n1[C@H]1COc2c(F)cc(F)cc2C1.[Na+] [compound VIII, Sodium (R)-2-(3-(6,8-difluorochroman-3-yl)-2-thioxo-2,3-dihydro-1H-imidazol-4-yl)ethylsulfamate] | + | – | 3.5 ± 1.1 | – | 32.1 ± 1.1 | 20.3 ± 0.7

More lines, main results first:

In vitro DβH inhibition [1] | IC50 [1] [µM] | SMILES | % control Mean ± SEM ([1]; compound at 5 μM) [% control] | crossing of the blood brain barrier (BBB) [2] | % control Mean ± SEM ([1]; compound at 0.5 μM) [% control] | % control Mean ± SEM ([1]; compound at 1 μM) [% control]
+ | 0.5 | CC(=O)NCCc1c[nH]c(=S)n1[C@H]1COc2c(F)cc(F)cc2C1 [compound II, (R)-N-(2-(3-(6,8-difluorochroman-3-yl)-2-thioxo-2,3-dihydro-1H-imidazol-4-yl)ethyl)acetamide] | – | – | – | –
+ | 0.6 | O=C(O)Cc1c[nH]c(=S)n1[C@H]1COc2c(F)cc(F)cc2C1 [compound III, (R)-2-(3-(6,8-difluorochroman-3-yl)-2-thioxo-2,3-dihydro-1H-imidazol-4-yl)acetic acid] | – | – | – | –
+ | 1.8 | NC(=O)Cc1c[nH]c(=S)n1[C@H]1COc2c(F)cc(F)cc2C1 [compound IV, (R)-2-(3-(6,8-difluorochroman-3-yl)-2-thioxo-2,3-dihydro-1H-imidazol-4-yl)acetamide] | – | – | – | –
+ | 0.5 | ONCCc1c[nH]c(=S)n1[C@H]1COc2c(F)cc(F)cc2C1 [compound V, (R)-1-(6,8-difluorochroman-3-yl)-5-(2-(hydroxyamino)ethyl)-1H-imidazole-2(3H)-thione hydrochloride] | – | – | – | –
+ | – | NCCc1c[nH]c(=S)n1[C@H]1COc2c(F)cc(F)cc2[C@@H]1O [compound VI, 5-(2-Aminoethyl)-1-((3S ,4S)-6,8-difluoro-4-hydroxychroman-3-yl)-1H-imidazole-2(3H)-thione hydrochloride] | – | – | – | –
